Data: US20160158231A1, “PYRIMIDINE HYDROXY AMIDE COMPOUNDS FOR TREATING PERIPHERAL NEUROPATHY” (VIB VZW, priority 2014, published 2016)
Entries after “also recorded” stand apart in the source; their conditions may differ.

How the values were obtained:
mutant HSPB1^S135F mice [1] = experiment: Motor and sensory deficits of mutant HSPB1 S135F mice (CMT2 model); format: in vivo, mouse; conditions: 3 mg/kg, daily IP injection, symptomatic animals
Source text: From the age of 6 months on, mutant HSPB1^S135F mice display motor and sensory deficits (d'Ydewalle et al., 2011). […] A positive trend for all the compounds tested was observed.

HSPB1^S135F DRG neurons [2] = conditions: d'Ydewalle et al., 2011; cited from earlier work
mutant HSPB1^S135F mice [3] = conditions: d'Ydewalle et al., 2011; cited from earlier work
[4] = tested on: C57B16/J mice, vincristine-induced sensory neuropathy; format: in vivo, mouse
Experimental: To study whether treatment with vincristine in vivo could induce a peripheral neuropathy, C57B16/J mice were injected intraperitoneally with vincristine on a daily basis. First, the animals were injected with different doses of vincristine. As sensory rather than motor problems are more pronounced in vincristine associated neuropathy patients, the Sensory Nerve Action Potentials (SNAPs) of the dorsal caudal tail nerve were first evaluated (FIG. 6A).
These animals were co-treated with vincristine and a selective HDAC6-inhibitor (Tubastatin A) to study the therapeutic potential of HDAC6-inhibition. […] A motor phenotype in our mice after vincristine treatment was not detected (results not shown).

[5] = tested on: acetylated histone 3 (H3) in Neuro2a cells; experiment: Acetylation status of histone 3 in Neuro2a cells: selectivity; format: cell-based, mouse; conditions: 1 μM; for acetylation of H3 on Western blot: ratio acetylated H3/H4 normalized to DMSO
[6] = tested on: vincristine-induced neuropathic pain model in rats; experiment: Vincristine-induced neuropathic pain model in rats (Von Frey test); format: in vivo, rat
Experimental: Neuropathic pain is induced by injecting 5 ml/kg Vincristine (50 μg/kg) administered daily IP for a period of 12 days. The development of neuropathic pain is confirmed by measuring of mechanical allodynia (Von Frey test) on study day 13.
Allodynic response to tactile stimulation is assessed using the Von Frey apparatus (Touch Test®).
The rat will be placed in an enclosure and positioned on a metal mesh surface, but allowed to move freely. The rats' cabins are covered with red cellophane to diminish environmental disturbances. The test begins after a cessation of exploratory behavior. The set of Von Frey monofilaments provide an approximate logarithmic scale of actual force and a linear scale of perceived intensity.
The operating principle: when the tip of a fiber of given length and diameter is pressed against the skin at right angles, the force of application increases as long as the researcher continues to advance the probe until the fiber bends. After the fiber bends, the probe continues to advance, causing the fiber to bend more, but without additional force being applied. […] The Touch Test™ Sensory Evaluator can be used on the plantar surfaces of the rat's foot. The animal indicates sensation by pulling back its paw. The minimal force needed to elevate the withdrawal reflex is considered/designated as the value of reference. In order to achieve paw withdrawal, the pressure applied is sometimes greater than 60 g, often requiring the researcher to apply enough pressure with the Von Frey filament to actually lift the paw of the naive animal. Decreases in force needed to induce withdrawal are indicative of allodynia, as the force applied is a non-painful stimulus under normal conditions.

HSPB1^S135F DRG neurons [7] = experiment: Axonal transport of mitochondria in DRG neurons cultured from HSPB1 S135F mice; format: cell-based, mouse; conditions: 2.5 μM; for amount of stationary mitochondria / number of moving mitochondria in the neurites / number of total mitochondria in the neurites: vs DMSO
Source text: Both compounds were able to increase the number of moving mitochondria in the neurites of HSPB1^S135F DRG neurons (FIGS. 4A and 4D).

[8] = tested on: taxol-induced neuropathic pain model in rats; experiment: Taxol-induced neuropathic pain model in rats (Von Frey test); format: in vivo, rat
Experimental: A study was conducted to extend the previous findings in the vincristine model to a different model of chemotherapy-induced neuropathy, the taxol-induced neuropathic pain model in rats.
Neuropathic pain is induced by a 0.5 ml/kg injection of taxol (2 mg/kg) administered IP on days 0-12. The development of neuropathic pain is confirmed by measuring mechanical allodynia (Von Frey test) on study day 13 as described above.
Pain was assessed using Von-Frey (VF) test for tactile allodynia on study days 13-15. The Rotarod Test was used to assess motor/coordination function.
Neuropathic pain was induced by a 0.5 ml/kg injection of taxol (2 mg/kg) administered IP on study days 0-12. The development of neuropathic pain was confirmed by measuring mechanical allodynia (Von Frey test) on study day 13.

[9] = Rat pharmacokinetic studies; format: in vivo; conditions: plasma, male SD rats, IV 1 mg/kg
Experimental: Male SD rats were fasted overnight. Compounds A and B were dissolved in dimethyl acetamide at 10 times the final concentration, then Solutol HS 15 (BASF) was added to a final concentration of 10%. Finally 80% saline was added and vortexed to achieve a clear solution. For the IV dosing three animals were injected via the foot dorsal vein with 1 mg/kg compound. For the PO dosing 5 mg/kg of compound was delivered by oral gavage. Blood was collected via the tail vein into K2EDTA tubes at 5 minutes, 15 minutes, 30 minutes, 1 hour, 2 hours, 4 hours, 8 hours and 24 hours after dosing. The blood was centrifuged at 2000 g for 5 minutes at 4° C. to obtain plasma. The plasma was extracted with acetonitrile and the level of compound was analyzed by LC/MS/MS. The level of compound in plasma was calculated from a standard curve in rat plasma. The IV clearance and area under the curve were calculated using WinNonLin software. The dose adjusted area under the curve for the IV and oral dosing were used to calculate the oral bioavailability.

[10] = tested on: HDAC6 (acetylated α-tubulin) in Neuro2a cells; experiment: Acetylated α-tubulin in Neuro2a cells (Western blot, staining): potency to inhibit HDAC6; conditions: for acetylated α-tubulin levels on Western blot / acetylated α-tubulin, staining of treated cells: 1 μM; for acetylated α-tubulin levels on Western blot: compared to DMSO; for acetylated α-tubulin, staining of treated cells: immunofluorescent staining; for relative potency to increase acetylated α-tubulin (dose-response): Western blot, different concentrations
[11] = Mouse pharmacokinetic studies (plasma and brain); format: in vivo; conditions: male, C57BL/6, mouse, iv, 1 mg/kg, read-out: Mouse brain to plasma ratio
Experimental: Male C57BL/6 mice were fasted overnight. Compounds A and B were dissolved in dimethyl acetamide at 10 times the final concentration, then Solutol HS 15 (BASF) was added to a final concentration of 10%. Finally 80% saline was added and vortexed to achieve a clear solution. Fifteen animals were injected via the tail vein with 1 mg/kg compound. Blood was collected by retro-orbital bleed at 5 minutes, 15 minutes, 30 minutes, 1 hour, 2 hours, 4 hours, 8 hours and 24 hours after dosing. At 5 minutes, 30 minutes, 1 hour and 4 hours after dosing three animals per time point were sacrificed and brains were removed. The blood was centrifuged at 2000 g for 5 minutes at 4° C. to obtain plasma. Brain samples were homogenized in PBS. The plasma and brain homogenate were extracted with acetonitrile and the level of compound was analyzed by LC/MS/MS. The level of compound in plasma was calculated from a standard curve in rat plasma and the level in brain was calculated from a standard curve in brain homogenate. The area under the curve in plasma and brain were calculated using WinNonLin software. The brain to plasma ratio was determined using the area under the curve values for the two compartments.

CN1CCc2c(c3ccccc3n2Cc2ccc(C(=O)NO)cc2)C1 [Tubastatin A]
amplitude of the compound muscle action potential (CMAP) (mutant HSPB1^S135F mice [1]): can restore | rescue of the axonal transport defect of mitochondria (HSPB1^S135F DRG neurons [2]): could be rescued | restoration of motor and sensory defects (mutant HSPB1^S135F mice [3]): can be restored

CC[C@]1(O)C[C@H]2CN(CCc3c([nH]c4ccccc34)[C@@](C(=O)OC)(c3cc4c(cc3OC)N(C=O)[C@H]3[C@@](O)(C(=O)OC)[C@H](OC(C)=O)[C@]5(CC)C=CCN6CC[C@]43[C@@H]65)C2)C1 [vincristine]
reduction in SNAP amplitude compared to vehicle treated mice ([4]; C57B16/J, mouse, in vivo, ip, 7 days): 35.4% | motor phenotype ([4]; mouse, in vivo): not detected | SNAP latencies ([4]; mouse, in vivo, ip): unaffected

O=C(NO)c1cnc(NC2(c3ccccc3)CC2)nc1 [Compound A, N-hydroxy-2-((1-phenylcyclopropyl)amino)pyrimidine-5-carboxamide]
acetylation of H3 on Western blot [5]: do not change | increasing the withdrawal force (Von Frey) ([6]; 3 mg/kg PO b.i.d.): not active | animals waking ability ([6]; 3 mg/kg and 10 mg/kg PO starting from study day 7): trend of improvement | Von Frey withdrawal force ([6]; 10 mg/kg PO b.i.d., study day 13, vehicle 9.45±0.66 g, ns): 11.00 ± 1.07 g | Von Frey withdrawal force ([6]; 10 mg/kg PO b.i.d., study day 15, vehicle 14.50±1.51 g, p<0.05): 33.85 ± 6.96 g | Von Frey force ([6]; 10 mg/kg, study days 14-15): significantly decreased | levels of acetylated α-tubulin in the neurites (staining) (HSPB1^S135F DRG neurons [7]): increased | amount of stationary mitochondria (HSPB1^S135F DRG neurons [7]): remains unchanged | number of moving mitochondria in the neurites (HSPB1^S135F DRG neurons [7]): increase | number of total mitochondria in the neurites (HSPB1^S135F DRG neurons [7]): increase | Von Frey withdrawal force ([8]; 3 mg/kg PO b.i.d., 2 hours post dosing, study day 15, vehicle 13.21±1.49 g): 53.20 ± 2.78 g | Von Frey withdrawal force ([8]; 10 mg/kg PO b.i.d., study day 13 post dosing, vehicle 15.33±2.13 g): 53.11 ± 4.77 g | reversing pain (conclusion) ([8]; doses of 3 mg/kg and 10 mg/kg): active in reversing pain | clearance [9]: 100 mL/min/kg | acetylated α-tubulin levels on Western blot [10]: significant increase | acetylated α-tubulin, staining of treated cells [10]: increased levels | Kp [11]: 1.23 | sensory neuropathy induced by vincristine (SNAP) ([4]; 25 mg/kg/day intraperitoneal, one week, co-treatment with vincristine): seems to reduce the sensory neuropathy

NCC1(CC(=O)O)CCCCC1 [Gabapentin, reference compound]
Von Frey withdrawal force ([6]; 150 mg/kg IP, study day 15, vehicle 14.50±1.51 g): 43.95 ± 5.00 g | Von Frey withdrawal force ([8]; 150 mg/kg IP, 2 hours post dosing, study day 15, vehicle 13.21±1.49 g): 54.90 ± 3.63 g

O=C(NO)c1cnc(NC2(c3cccc(F)c3)CCCCC2)nc1 [Compound B, 2-((1-(3-fluorophenyl)cyclohexyl)amino)-N-hydroxypyrimidine-5-carboxamide]
acetylation of H3 on Western blot [5]: do not change | amplitude of the compound muscle action potential (CMAP) (mutant HSPB1^S135F mice [1]): statistical significant rescue; also recorded: can restore | levels of acetylated α-tubulin in the neurites (staining) (HSPB1^S135F DRG neurons [7]): increased | amount of stationary mitochondria (HSPB1^S135F DRG neurons [7]): remains unchanged | number of moving mitochondria in the neurites (HSPB1^S135F DRG neurons [7]): increase | number of total mitochondria in the neurites (HSPB1^S135F DRG neurons [7]): increase | clearance [9]: 38.3 mL/min/kg | acetylated α-tubulin levels on Western blot [10]: significant increase | acetylated α-tubulin, staining of treated cells [10]: increased levels | relative potency to increase acetylated α-tubulin (dose-response) [10]: more potent | Kp [11]: 1.28

CC(/C=C/C(=O)NO)=C\[C@@H](C)C(=O)c1ccc(N(C)C)cc1 [TSA, Trichostatin A, reference compound]
acetylated H3 in nuclei, staining of treated cells ([5]; immunofluorescent staining): more acetylated H3 | acetylation of H3 on Western blot [5]: increases | acetylated α-tubulin, staining of treated cells [10]: increased levels | relative potency to increase acetylated α-tubulin (dose-response) [10]: more potent | restoration of motor and sensory defects (mutant HSPB1^S135F mice [3]): can be restored
